Assay results taken from patent publication US20260317324A1, “BIFUNCTIONAL COMPOUNDS FOR DEGRADING BRAF VIA UBIQUITIN PROTEOSOME PATHWAY” (Nurix Therapeutics, Inc., priority 2023, published 2026).

Target: T1, BRAF V600E (Homo sapiens, UniProt P15056, V600E)
T1 construct: endogenous C-terminal HiBiT fusion tag on BRAF V600E allele; endogenous in cells; host or cells: A375 clone 1F10 (CRISPR-Cas9 knock-in of the HiBiT tag; parental A375 from ATCC)
Test: BRAF HiBiT degradation assay, C-terminal HiBiT-tagged BRAF V600E A375 cells (clone 1F10), Nano-Glo HiBiT Lytic assay
Assay type: cell-based
Conditions: for Dmax: A-375
Method in brief: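 A375 cells with CRISPR knock-in C-terminal HiBiT on endogenous BRAF V600E (clone 1F10) were seeded and cultured 24 h at 37 °C, then dosed with an 11-point half-log series (1 μM to 0.01 nM, duplicate, 0.2% DMSO). Lytic HiBiT luminescence gave % protein remaining; DC50 was the fitted concentration at 50%.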

[1] = A375 (BRAF V600E, Class 1), DC50 at 50% degradation
[2] = A375 (BRAF V600E, Class 1), observed Dmax, % protein degraded relative to DMSO control
[3] = A375 (BRAF V600E), DC50 at 50%: fitted conc. at Y=50
[4] = A375 (BRAF V600E), percentage protein degraded at maximal compound effect relative to DMSO

T1 sequence (P15056 whole entry V600E, the tested form may be a part): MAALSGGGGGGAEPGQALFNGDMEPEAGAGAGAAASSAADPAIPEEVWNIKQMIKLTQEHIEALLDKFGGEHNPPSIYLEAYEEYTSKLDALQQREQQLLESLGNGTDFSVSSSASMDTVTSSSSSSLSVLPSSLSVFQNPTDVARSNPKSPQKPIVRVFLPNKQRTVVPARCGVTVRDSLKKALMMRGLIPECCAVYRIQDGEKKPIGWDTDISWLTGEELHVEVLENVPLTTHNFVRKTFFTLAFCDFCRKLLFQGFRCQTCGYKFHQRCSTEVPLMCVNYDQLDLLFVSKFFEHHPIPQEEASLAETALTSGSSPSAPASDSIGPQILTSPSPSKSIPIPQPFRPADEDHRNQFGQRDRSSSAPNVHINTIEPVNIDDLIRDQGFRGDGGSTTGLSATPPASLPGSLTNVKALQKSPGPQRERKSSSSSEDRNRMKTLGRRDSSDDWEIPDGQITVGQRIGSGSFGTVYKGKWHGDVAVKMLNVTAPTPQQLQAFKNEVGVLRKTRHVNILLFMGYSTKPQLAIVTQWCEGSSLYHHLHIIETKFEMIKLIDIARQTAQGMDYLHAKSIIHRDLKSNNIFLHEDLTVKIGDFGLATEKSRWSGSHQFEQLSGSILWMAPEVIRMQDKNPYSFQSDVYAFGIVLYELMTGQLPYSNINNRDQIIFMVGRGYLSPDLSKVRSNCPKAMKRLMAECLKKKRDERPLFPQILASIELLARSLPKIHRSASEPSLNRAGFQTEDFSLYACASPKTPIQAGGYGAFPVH

Structure (SMILES)	DC50 [1]	Dmax [2]	DC50 [3]	Dmax [4]
O=C1CCC(c2ccc(N3CCC(CN4CCN(c5ccc(-n6cc(-c7cc(F)cc(NS(=O)(=O)N8CCCC8)c7F)c(-c7ccncc7)n6)c(F)c5)CC4)CC3)nc2)C(=O)N1 (racemic) [Compound 341, Rac-N-{3-[1-(4-{4-[(1-{5-[(3R)-2,6-dioxopiperidin-3-yl]pyridin-2-yl}piperidin-4-yl)methyl]piperazin-1-yl}-2-fluorophenyl)-3-(pyridin-4-yl)-1H-pyrazol-4-yl]-2,5-difluorophenyl}pyrrolidine-1-sulfonamide]	< 10 nM	> 70%	–	–
CCCS(=O)(=O)Nc1cccc(-c2nc(C(C)(C)C)sc2-c2ccnc(Nc3cnn(C4CCN(C(=O)[C@@H]5CCN(c6ccc(C7CCC(=O)NC7=O)cn6)C5)CC4)c3)n2)c1F (mixture of isomers) [Compound 106, N-[3-(2-tert-butyl-5-{2-[(1-{1-[(3R)-1-{5-[(3RS)-2,6-dioxopiperidin-3-yl]pyridin-2-yl}pyrrolidine-3-carbonyl]piperidin-4-yl}-1H-pyrazol-4-yl)amino]pyrimidin-4-yl}-1,3-thiazol-4-yl)-2-fluorophenyl]propane-1-sulfonamide]	–	–	50 to 500 nM	30 to 70%
CCCS(=O)(=O)Nc1cccc(-c2cn(-c3ccc(N4CCN(C(=O)C5CCN(c6ccc(C7CCC(=O)NC7=O)cc6)CC5)CC4)cc3)nc2-c2ccncc2)c1F (racemic) [Compound 26, Rac-N-[3-(1-{4-[4-(1-{4-[(3R)-2,6-dioxopiperidin-3-yl]phenyl}piperidine-4-carbonyl)piperazin-1-yl]phenyl}-3-(pyridin-4-yl)-1H-pyrazol-4-yl)-2-fluorophenyl]propane-1-sulfonamide]	–	–	50 to 500 nM	30 to 70%
CCCS(=O)(=O)Nc1cccc(-c2nc(C(C)(C)C)sc2-c2ccnc(N[C@H]3CC[C@H](N4CCN(C(=O)C5CCN(c6ccc(C7CCC(=O)NC7=O)cn6)CC5)CC4)CC3)n2)c1F (mixture of isomers) [Compound 137, N-{3-[2-tert-butyl-5-(2-{[(1r,4r)-4-[4-(1-{5-[(3RS)-2,6-dioxopiperidin-3-yl]pyridin-2-yl}piperidine-4-carbonyl)piperazin-1-yl]cyclohexyl]amino}pyrimidin-4-yl)-1,3-thiazol-4-yl]-2-fluorophenyl}propane-1-sulfonamide]	–	–	50 to 500 nM	30 to 70%
CCCS(=O)(=O)Nc1cccc(-c2nc(C(C)(C)C)sc2-c2ccnc(NC3CC4(C3)CN(C(=O)C3CCN(c5cccc6c5n(C)c(=O)n6C5CCC(=O)NC5=O)CC3)C4)n2)c1F (racemic) [Compound 160, Rac-N-{3-[2-tert-butyl-5-(2-{[2-(1-{1-[(3R)-2,6-dioxopiperidin-3-yl]-3-methyl-2-oxo-2,3-dihydro-1H-1,3-benzodiazol-4-yl}piperidine-4-carbonyl)-2-azaspiro[3.3]heptan-6-yl]amino}pyrimidin-4-yl)-1,3-thiazol-4-yl]-2-fluorophenyl}propane-1-sulfonamide]	–	–	–	30 to 70%
CCCS(=O)(=O)Nc1cccc(-c2nc(C3CCN(CC4CCN(C(=O)CN5CCc6cc(C7CCC(=O)NC7=O)ccc6C5)CC4)CC3)sc2-c2ccnc(N)n2)c1F (racemic) [Compound 226, Rac-N-{3-[5-(2-aminopyrimidin-4-yl)-2-(1-{[1-(2-{6-[(3R)-2,6-dioxopiperidin-3-yl]-1,2,3,4-tetrahydroisoquinolin-2-yl}acetyl)piperidin-4-yl]methyl}piperidin-4-yl)-1,3-thiazol-4-yl]-2-fluorophenyl}propane-1-sulfonamide]	–	–	50 to 500 nM	30 to 70%
CCCS(=O)(=O)Nc1cccc(-c2nc(C(C)(C)C3CCN(C(=O)CN4CCC5(CC4)CN(c4ccc6c(c4)C(=O)N(C4CCC(=O)NC4=O)C6=O)C5)CC3)sc2-c2ccnc(N)n2)c1F (racemic) [Compound 240, Rac-N-{3-[5-(2-aminopyrimidin-4-yl)-2-(2-{1-[2-(2-{2-[(3R)-2,6-dioxopiperidin-3-yl]-1,3-dioxo-2,3-dihydro-1H-isoindol-5-yl}-2,7-diazaspiro[3.5]nonan-7-yl)acetyl]piperidin-4-yl}propan-2-yl)-1,3-thiazol-4-yl]-2-fluorophenyl}propane-1-sulfonamide]	–	–	> 500 nM	30 to 70%
CCCS(=O)(=O)Nc1cccc(-c2cn(-c3ccc(C(=O)N4CCN(C(=O)C5CCN(c6ccc(C7CCC(=O)NC7=O)cc6)CC5)CC4)cc3)nc2-c2ccncc2)c1F (racemic) [Compound 14, Rac-N-[3-(1-{4-[4-(1-{4-[(3R)-2,6-dioxopiperidin-3-yl]phenyl}piperidine-4-carbonyl)piperazine-1-carbonyl]phenyl}-3-(pyridin-4-yl)-1H-pyrazol-4-yl)-2-fluorophenyl]propane-1-sulfonamide]	–	–	50 to 500 nM	30 to 70%
CCCS(=O)(=O)Nc1cccc(-c2cn(-c3ccc(OC4CCN(C(=O)C5CCN(c6ccc(C7CCC(=O)NC7=O)cn6)CC5)CC4)cc3)nc2-c2ccncc2)c1F (racemic) [Compound 5, Rac-N-{3-[1-(4-{[1-(1-{5-[(3R)-2,6-dioxopiperidin-3-yl]pyridin-2-yl}piperidine-4-carbonyl)piperidin-4-yl]oxy}phenyl)-3-(pyridin-4-yl)-1H-pyrazol-4-yl]-2-fluorophenyl}propane-1-sulfonamide]	–	–	50 to 500 nM	30 to 70%
CCCS(=O)(=O)Nc1cccc(-c2nc(C3CCC4(CC3)CCN(CC3CCN(c5ccc(C6CCC(=O)NC6=O)cc5)CC3)CC4)sc2-c2ccnc(N)n2)c1F (racemic) [Compound 256, Rac-N-{3-[5-(2-aminopyrimidin-4-yl)-2-{3-[(1-{4-[(3R)-2,6-dioxopiperidin-3-yl]phenyl}piperidin-4-yl)methyl]-3-azaspiro[5.5]undecan-9-yl}-1,3-thiazol-4-yl]-2-fluorophenyl}propane-1-sulfonamide]	50 to 500 nM	30 to 70%	–	–

Continued, values first:

DC50 [1]	Dmax [2]	DC50 [3]	Dmax [4]	Structure (SMILES)
–	–	< 10 nM	30 to 70%	CCCS(=O)(=O)Nc1cccc(-c2nc(C3CCC4(CC3)CN(C(=O)CN3CCN(c5ccc6c(c5)C(=O)N(C5CCC(=O)NC5=O)C6=O)CC3)C4)sc2-c2ccnc(N)n2)c1F (racemic) [Compound 230, Rac-N-{3-[5-(2-aminopyrimidin-4-yl)-2-{2-[2-(4-{2-[(3R)-2,6-dioxopiperidin-3-yl]-1,3-dioxo-2,3-dihydro-1H-isoindol-5-yl}piperazin-1-yl)acetyl]-2-azaspiro[3.5]nonan-7-yl}-1,3-thiazol-4-yl]-2-fluorophenyl}propane-1-sulfonamide]
–	–	< 10 nM	> 70%	CCCS(=O)(=O)Nc1cccc(-c2nc(C)sc2-c2ccnc(Nc3ccc(C4CCN(CC5CCN(c6ccc(C7CCC(=O)NC7=O)cn6)CC5)CC4)cc3)n2)c1F (racemic) [Compound 54, Rac-N-[3-(5-{2-[(4-{1-[(1-{5-[(3R)-2,6-dioxopiperidin-3-yl]pyridin-2-yl}piperidin-4-yl)methyl]piperidin-4-yl}phenyl)amino]pyrimidin-4-yl}-2-methyl-1,3-thiazol-4-yl)-2-fluorophenyl]propane-1-sulfonamide]
–	–	10 to 50 nM	30 to 70%	CCCS(=O)(=O)Nc1cccc(-c2nc(-c3ccc(N4CCN(C(=O)C5CCN(c6ccc(C7CCC(=O)NC7=O)cc6)CC5)CC4)cc3)sc2-c2ccnc(N)n2)c1F (racemic) [Compound 190, Rac-N-{3-[5-(2-aminopyrimidin-4-yl)-2-{4-[4-(1-{4-[(3R)-2,6-dioxopiperidin-3-yl]phenyl}piperidine-4-carbonyl)piperazin-1-yl]phenyl}-1,3-thiazol-4-yl]-2-fluorophenyl}propane-1-sulfonamide]
–	–	< 10 nM	> 70%	CCCS(=O)(=O)Nc1cccc(-c2nc(C3CCC4(CC3)CN(C(=O)CN3CCC5(CC3)CN(c3ccc6c(c3)C(=O)N(C3CCC(=O)NC3=O)C6=O)C5)C4)sc2-c2ccnc(N)n2)c1F (racemic) [Compound 236, Rac-N-{3-[5-(2-aminopyrimidin-4-yl)-2-{2-[2-(2-{2-[(3R)-2,6-dioxopiperidin-3-yl]-1,3-dioxo-2,3-dihydro-1H-isoindol-5-yl}-2,7-diazaspiro[3.5]nonan-7-yl)acetyl]-2-azaspiro[3.5]nonan-7-yl}-1,3-thiazol-4-yl]-2-fluorophenyl}propane-1-sulfonamide]
–	–	10 to 50 nM	> 70%	CCCS(=O)(=O)Nc1cccc(-c2cn(-c3ccc(N4CCN(CC5CCN(c6ccc(C7CCC(=O)NC7=O)cn6)CC5)CC4)cc3)nc2-c2ccncc2)c1F (racemic) [Compound 20, Rac-N-{3-[1-(4-{4-[(1-{5-[(3R)-2,6-dioxopiperidin-3-yl]pyridin-2-yl}piperidin-4-yl)methyl]piperazin-1-yl}phenyl)-3-(pyridin-4-yl)-1H-pyrazol-4-yl]-2-fluorophenyl}propane-1-sulfonamide]
–	–	10 to 50 nM	> 70%	CCCS(=O)(=O)Nc1cccc(-c2nc(C(C)(C)C)sc2-c2ccnc(Nc3cnn(CC4CCN(CC[C@@H]5CCN(c6ccc(C7CCC(=O)NC7=O)cn6)C5)CC4)c3)n2)c1F (mixture of isomers) [Compound 81, N-(3-{2-tert-butyl-5-[2-({1-[(1-{2-[(3R)-1-{5-[(3RS)-2,6-dioxopiperidin-3-yl]pyridin-2-yl}pyrrolidin-3-yl]ethyl}piperidin-4-yl)methyl]-1H-pyrazol-4-yl}amino)pyrimidin-4-yl]-1,3-thiazol-4-yl}-2-fluorophenyl)propane-1-sulfonamide]
